US9346781B2, “Therapeutic compounds” (UNIVERSITY OF IOWA RESEARCH FOUNDATION, priority 2012, dated 2016)

Assays:
SK-MEL-2 = experiment: MTT cell viability assay, SK-MEL-2; type: cell-based; conditions: Homo sapiens, 72 hours, read-out: IC50 (nM), antiproliferative effect
Description: (§1) FIG. 1 Illustrates results generated when HT29, A375SM, MEL624, SK-MEL-2, H1299, HCT116, Raji, HL60 and MDA-MB231 cells were treated with log-scale serial diluted concentrations of truncated superstolide A (Compound 3) from 1 to 3000 nM for 72 hours and the effect of truncated superstolide A on cell death was measured by performing a MTT assay.
(§2) Cell Viability Assay: The antiproliferative effect of compound 3 was determined by performing 3-(4,5-dimethylthiazol-2-yl)-2,5-diphenyltetrazolim (MTT) assay. Briefly, cancer cells at varying concentrations—2,000 cells/well (A375SM, MEL624 and SK-MEL-2,) and 5,000 cells/well (HT29, H1299, and HCT116, Raji, and HL-60)—were seeded onto a 96-well plate in triplicates. […] At the end of the 72 hours period, cells were treated with the MTT reagent (Sigma-Aldrich, M O) and the antiproliferative effect of compound 3 was measured as previously described (Zhou Y, Achanta G, Pelicano H, Gandhi V, Plunkett W, and Huang P (2002). Molecular Pharmacology 61:222-229). […]
(§3) The antiproliferative effect of compound 3 was evaluated in two human colon carcinoma cell lines (HT29, HCT116), three malignant melanoma cell lines (A375SM, MEL624, and SK-MEL-2), one human non-small cell lung carcinoma cell line (H1299), one lymphoma cell line (Raji), one leukemia cell line (HL-60), and one malignant breast cancer cell line (MDA-MB231) using MTT assay. […]

A375SM = experiment: MTT cell viability assay, A375SM; type: cell-based; conditions: Homo sapiens, A375-SM, 72 hours, read-out: IC50 (nM), antiproliferative effect
Description: as §1, §2, §3

NCI-60 cell assay = experiment: NCI-60 cell assay; type: cell-based; conditions: leukemia, non-small cell lung cancer, colon cancer, CNS cancer, melanoma, ovarian cancer, renal cancer, prostate cancer, breast cancer
[1] = test system: the other eight tested cell lines; experiment: MTT cell viability assay, other eight tested cell lines (summary); type: cell-based; conditions: Homo sapiens; the other eight tested cell lines (all but HT-29); read-out: IC50 in suppressing tumor cell proliferation
Description: Cell Viability Assay: The antiproliferative effect of compound 3 was determined by performing 3-(4,5-dimethylthiazol-2-yl)-2,5-diphenyltetrazolim (MTT) assay. Briefly, cancer cells at varying concentrations—2,000 cells/well (A375SM, MEL624 and SK-MEL-2,) and 5,000 cells/well (HT29, H1299, and HCT116, Raji, and HL-60)—were seeded onto a 96-well plate in triplicates. Following an overnight incubation, the cells were treated with log-scale serially increasing concentrations of compound 3 for 72 hours at 37° C. At the end of the 72 hours period, cells were treated with the MTT reagent (Sigma-Aldrich, M O) and the antiproliferative effect of compound 3 was measured as previously described (Zhou Y, Achanta G, Pelicano H, Gandhi V, Plunkett W, and Huang P (2002). Molecular Pharmacology 61:222-229). The IC50 values correspond to a concentration of compound 3 that inhibits cell viability by 50%.
The antiproliferative effect of compound 3 was evaluated in two human colon carcinoma cell lines (HT29, HCT116), three malignant melanoma cell lines (A375SM, MEL624, and SK-MEL-2), one human non-small cell lung carcinoma cell line (H1299), one lymphoma cell line (Raji), one leukemia cell line (HL-60), and one malignant breast cancer cell line (MDA-MB231) using MTT assay. The data (MTT curves and IC50 tables) are shown in FIG. 1 and in the following Table 1.

Raji = experiment: MTT cell viability assay, Raji; type: cell-based; conditions: Homo sapiens, 72 hours, read-out: IC50 (nM), antiproliferative effect
Description: as §1, §2, §3

MEL624 = experiment: MTT cell viability assay, MEL624; type: cell-based; conditions: 72 hours, read-out: IC50 (nM), antiproliferative effect
Description: as §1, §2, §3

HL60 = experiment: MTT cell viability assay, HL60; type: cell-based; conditions: Homo sapiens, HL-60, 72 hours, read-out: IC50 (nM), antiproliferative effect
Description: as §1, §2, §3

HCT116 = experiment: MTT cell viability assay, HCT116; type: cell-based; conditions: Homo sapiens, HCT-116, 72 hours, read-out: IC50 (nM), antiproliferative effect
Description: as §1, §2, §3

H1299 = experiment: MTT cell viability assay, H1299; type: cell-based; conditions: Homo sapiens, NCI-H1299, 72 hours, read-out: IC50 (nM), antiproliferative effect
Description: as §1, §2, §3

HT29 = experiment: MTT cell viability assay, HT29; type: cell-based, human
Description: as §1, §2, §3

MDA-MB231 = experiment: MTT cell viability assay, MDA-MB231; type: cell-based; conditions: Homo sapiens, MDA-MB-231, 72 hours, read-out: IC50 (nM), antiproliferative effect
Description: as §1, §2, §3

HT-29 cell = conditions: read-out: IC50, antiproliferative effect; cited from earlier work

Q: Which IC50 (SK-MEL-2) does the source give for CC(=O)N[C@H](C)[C@@H](O)[C@@H](C)[C@@H]1OC(=O)/C=C/C=C(C)\C=C\[C@]2(C)CCC=C[C@@H]2/C=C(C)/C=C/[C@H]1C [Compound 3] here?
A: 63.8 nM

Q: And the IC50 (A375SM)?
A: 36.5 nM

Q: What about the “activity in NCI-60 cell assay” value (NCI-60 cell assay) of the same molecule?
A: active

Q: And the IC50 [1]?
A: 10 to 70 nM

Q: What about the IC50 (Raji) of the same molecule?
A: 76.7 nM

Q: What about the IC50 (MEL624) of the same molecule?
A: 53.1 nM

Q: And the IC50 (HL60)?
A: 11.8 nM

Q: And the IC50 (HCT116)?
A: 52.7 nM

Q: What about the IC50 (H1299) of the same molecule?
A: 56.8 nM

Q: And the “potency in suppressing tumor cell proliferation relative to superstolide A” value (HT29; HT-29 cell, versus parent natural product superstolide A)?
A: about seven times more potent

Q: And the IC50 (HT29; Homo sapiens, HT-29, HT29, 72 hours, MTT assay, read-out: IC50 (nM), antiproliferative effect)?
A: 7.54 nM

Q: And the IC50 (MDA-MB231)?
A: 18 nM

Q: For superstolide A, which IC50 (HT-29 cell) is on record?
A: 64 nM
